In patent US6395896B2, “Pyridazine derivatives, manufacturing method and related composition” (Shiseido Co., Ltd., priority 1999, dated 2002):

Test: Colorant stabilization effect (photostabilizer, sunlight exposure)
Parameters: key to Sunlight exposure (80 MJ) Appearance: A: No change; B: No almost change; C: Yes change; key to Sunlight exposure (80 MJ) ΔE: ΔE color difference (Lab) vs. color before sunlight exposure
Description: First of all, the photostabilization effect and appearance change of a composition in each pigment were studied by the following evaluation formulation.
Each test sample was prepared. Observation of appearance change (visual evaluation) and measurement of color difference (ΔE) were carried out in samples exposed to sunlight exposure (around 80 MJ).
Color difference was measured by Lab coordinate system with spectrophotometer. Color difference was calculated on the basis of the color before sunlight exposure. Namely, from measured value (L1,a1,b1) before sunlight exposure, color difference (ΔE) was calculated by following formula.

[1] = Red No. 227 0.0001 wt % + Yellow No. 5 0.0001 wt %, photostabilizer 0.05 wt %
[2] = Red No. 227 0.0001 wt % + Yellow No. 5 0.0001 wt %, photostabilizer 0.1 wt %
[3] = Red No. 227 0.0001 wt % + Yellow No. 203 0.0001 wt %, photostabilizer 0.05 wt %
[4] = Red No. 227 0.0001 wt % + Yellow No. 203 0.0001 wt %, photostabilizer 0.1 wt %
[5] = Red No. 227 0.0001 wt % + Yellow No. 203 0.0001 wt %, photostabilizer 0.3 wt %
[6] = Red No. 227 0.0001 wt %, photostabilizer 0.02 wt %
[7] = Red No. 227 0.0001 wt %, photostabilizer 0.05 wt %
[8] = Red No. 227 0.0001 wt %, photostabilizer 0.1 wt %
[9] = Red No. 401 0.0001 wt % + Blue No. 1 0.00001 wt %, photostabilizer 0.03 wt %
[10] = Red No. 401 0.0001 wt % + Blue No. 1 0.00001 wt %, photostabilizer 0.05 wt %
[11] = Red No. 401 0.0001 wt % + Blue No. 1 0.00001 wt %, photostabilizer 0.1 wt %
[12] = Red No. 401 0.0001 wt % + Green No. 3 0.00001 wt %, photostabilizer 0.03 wt %
[13] = Red No. 401 0.0001 wt % + Green No. 3 0.00001 wt %, photostabilizer 0.05 wt %
[14] = Red No. 401 0.0001 wt % + Green No. 3 0.00001 wt %, photostabilizer 0.3 wt %
[15] = Red No. 401 0.0001 wt %, photostabilizer 0.05 wt %
[16] = Red No. 401 0.0001 wt %, photostabilizer 0.1 wt %
[17] = Red No. 401 0.0001 wt %, photostabilizer 0.3 wt %
[18] = Red No. 401 0.001 wt %, photostabilizer 0.03 wt %
[19] = Red No. 401 0.001 wt %, photostabilizer 0.05 wt %
[20] = Red No. 401 0.001 wt %, photostabilizer 0.1 wt %
[21] = Yellow No. 5 0.0001 wt %, photostabilizer 0.05 wt %
[22] = Yellow No. 5 0.0001 wt %, photostabilizer 0.1 wt %
[23] = Yellow No. 5 0.0001 wt %, photostabilizer 0.3 wt %
[24] = Yellow No. 5 0.001 wt %, photostabilizer 0.01 wt %
[25] = Yellow No. 5 0.001 wt %, photostabilizer 0.05 wt %
[26] = Yellow No. 5 0.001 wt %, photostabilizer 0.1 wt %
[27] = Yellow No. 203 0.0001 wt % + Yellow No. 5 0.0001 wt %, photostabilizer 0.03 wt %
[28] = Yellow No. 203 0.0001 wt % + Yellow No. 5 0.0001 wt %, photostabilizer 0.05 wt %
[29] = Yellow No. 203 0.0001 wt % + Yellow No. 5 0.0001 wt %, photostabilizer 0.1 wt %
[30] = Yellow No. 203 0.0001 wt %, photostabilizer 0.05 wt %
[31] = Yellow No. 203 0.0001 wt %, photostabilizer 0.1 wt %
[32] = Yellow No. 203 0.0001 wt %, photostabilizer 0.3 wt %
[33] = Yellow No. 203 0.001 wt %, photostabilizer 0.02 wt %
[34] = Yellow No. 203 0.001 wt %, photostabilizer 0.05 wt %
[35] = Yellow No. 203 0.001 wt %, photostabilizer 0.1 wt %

In the case of Oc1nncc(N2CCOCC2)c1N1CCOCC1 [4,5-Dimorpholino-3-hydroxypyridazine], the “Sunlight exposure (80 MJ) ΔE” value (Red No. 227 0.0001 wt % + Yellow No. 5 0.0001 wt %, photostabilizer 0.03 wt %) was 0.72, the “Sunlight exposure (80 MJ) Appearance” value [1] was “A” and the “Sunlight exposure (80 MJ) ΔE” value [1] was 0.59. For the same compound, the “Sunlight exposure (80 MJ) Appearance” value [2] was “A”, the “Sunlight exposure (80 MJ) ΔE” value [2] was 0.18 and the “Sunlight exposure (80 MJ) Appearance” value [3] was “A”. The “Sunlight exposure (80 MJ) ΔE” value [3] was 0.78, the “Sunlight exposure (80 MJ) Appearance” value [4] was “A” and the “Sunlight exposure (80 MJ) ΔE” value [4] was 0.35. For the same compound, the “Sunlight exposure (80 MJ) Appearance” value [5] was “A”, the “Sunlight exposure (80 MJ) ΔE” value [5] was 0.14 and the “Sunlight exposure (80 MJ) Appearance” value [6] was “A”. For the same compound, the “Sunlight exposure (80 MJ) ΔE” value [6] was 0.71, the “Sunlight exposure (80 MJ) Appearance” value [7] was “A” and the “Sunlight exposure (80 MJ) ΔE” value [7] was 0.49. The “Sunlight exposure (80 MJ) Appearance” value [8] was “A”, the “Sunlight exposure (80 MJ) ΔE” value [8] was 0.22 and the “Sunlight exposure (80 MJ) Appearance” value [9] was “A”. For the same compound, the “Sunlight exposure (80 MJ) ΔE” value [9] was 0.95, the “Sunlight exposure (80 MJ) Appearance” value [10] was “A” and the “Sunlight exposure (80 MJ) ΔE” value [10] was 0.32. For the same compound, the “Sunlight exposure (80 MJ) Appearance” value [11] was “A”, the “Sunlight exposure (80 MJ) ΔE” value [11] was 0.07 and the “Sunlight exposure (80 MJ) Appearance” value [12] was “A”. The “Sunlight exposure (80 MJ) ΔE” value [12] was 0.98, the “Sunlight exposure (80 MJ) Appearance” value [13] was “A” and the “Sunlight exposure (80 MJ) ΔE” value [13] was 0.73. The “Sunlight exposure (80 MJ) Appearance” value [14] was “A”, the “Sunlight exposure (80 MJ) ΔE” value [14] was 0.14 and the “Sunlight exposure (80 MJ) Appearance” value [15] was “A”. For the same compound, the “Sunlight exposure (80 MJ) ΔE” value [15] was 0.82, the “Sunlight exposure (80 MJ) Appearance” value [16] was “A” and the “Sunlight exposure (80 MJ) ΔE” value [16] was 0.56. For the same compound, the “Sunlight exposure (80 MJ) Appearance” value [17] was “A”, the “Sunlight exposure (80 MJ) ΔE” value [17] was 0.19 and the “Sunlight exposure (80 MJ) Appearance” value [18] was “A”. The “Sunlight exposure (80 MJ) ΔE” value [18] was 0.95, the “Sunlight exposure (80 MJ) Appearance” value [19] was “A” and the “Sunlight exposure (80 MJ) ΔE” value [19] was 0.71. For the same compound, the “Sunlight exposure (80 MJ) Appearance” value [20] was “A”, the “Sunlight exposure (80 MJ) ΔE” value [20] was 0.45 and the “Sunlight exposure (80 MJ) Appearance” value [21] was “A”. For the same compound, the “Sunlight exposure (80 MJ) ΔE” value [21] was 0.59, the “Sunlight exposure (80 MJ) Appearance” value [22] was “A” and the “Sunlight exposure (80 MJ) ΔE” value [22] was 0.71. For the same compound, the “Sunlight exposure (80 MJ) Appearance” value [23] was “A”, the “Sunlight exposure (80 MJ) ΔE” value [23] was 0.22 and the “Sunlight exposure (80 MJ) Appearance” value [24] was “A”. For the same compound, the “Sunlight exposure (80 MJ) ΔE” value [24] was 0.61, the “Sunlight exposure (80 MJ) Appearance” value [25] was “A” and the “Sunlight exposure (80 MJ) ΔE” value [25] was 0.43. The “Sunlight exposure (80 MJ) Appearance” value [26] was “A”, the “Sunlight exposure (80 MJ) ΔE” value [26] was 0.22 and the “Sunlight exposure (80 MJ) Appearance” value [27] was “A”. The “Sunlight exposure (80 MJ) ΔE” value [27] was 0.52, the “Sunlight exposure (80 MJ) Appearance” value [28] was “A” and the “Sunlight exposure (80 MJ) ΔE” value [28] was 0.37. The “Sunlight exposure (80 MJ) Appearance” value [29] was “A”, the “Sunlight exposure (80 MJ) ΔE” value [29] was 0.12 and the “Sunlight exposure (80 MJ) Appearance” value [30] was “A”. The “Sunlight exposure (80 MJ) ΔE” value [30] was 0.22, the “Sunlight exposure (80 MJ) Appearance” value [31] was “A” and the “Sunlight exposure (80 MJ) ΔE” value [31] was 0.10. The “Sunlight exposure (80 MJ) Appearance” value [32] was “A”, the “Sunlight exposure (80 MJ) ΔE” value [32] was 0.05 and the “Sunlight exposure (80 MJ) Appearance” value [33] was “A”. For the same compound, the “Sunlight exposure (80 MJ) ΔE” value [33] was 0.25, the “Sunlight exposure (80 MJ) Appearance” value [34] was “A” and the “Sunlight exposure (80 MJ) ΔE” value [34] was 0.18. For the same compound, the “Sunlight exposure (80 MJ) Appearance” value [35] was “A”, the “Sunlight exposure (80 MJ) ΔE” value [35] was 0.08 and the “change of appearance of the composition” value (summary of Tables 11 to 13) was “small”. For the same compound, the “color difference ΔE” value (summary of Tables 11 to 13) was “very small in comparison with other photostabilizers”.
